Measured values reported in ChEMBL document CHEMBL3991601, “The target landscape of clinical kinase drugs” (Science, 2017).
Calls of active or inactive are those of the source.

Columns and labels:
Myosin-10 = Myosin-10 (Homo sapiens, UniProt P35580)
[1] = target: PAS domain-containing serine/threonine-protein kinase (Homo sapiens, UniProt Q96RG2)
[2] = target: Dual specificity testis-specific protein kinase 2 (Homo sapiens, UniProt Q96S53)
[3] = target: Membrane-associated progesterone receptor component 1 (Homo sapiens, UniProt O00264)
[4] = target: T1, Receptor-type tyrosine-protein kinase FLT3 (Homo sapiens, UniProt P36888)
T1 sequence (P36888 whole entry): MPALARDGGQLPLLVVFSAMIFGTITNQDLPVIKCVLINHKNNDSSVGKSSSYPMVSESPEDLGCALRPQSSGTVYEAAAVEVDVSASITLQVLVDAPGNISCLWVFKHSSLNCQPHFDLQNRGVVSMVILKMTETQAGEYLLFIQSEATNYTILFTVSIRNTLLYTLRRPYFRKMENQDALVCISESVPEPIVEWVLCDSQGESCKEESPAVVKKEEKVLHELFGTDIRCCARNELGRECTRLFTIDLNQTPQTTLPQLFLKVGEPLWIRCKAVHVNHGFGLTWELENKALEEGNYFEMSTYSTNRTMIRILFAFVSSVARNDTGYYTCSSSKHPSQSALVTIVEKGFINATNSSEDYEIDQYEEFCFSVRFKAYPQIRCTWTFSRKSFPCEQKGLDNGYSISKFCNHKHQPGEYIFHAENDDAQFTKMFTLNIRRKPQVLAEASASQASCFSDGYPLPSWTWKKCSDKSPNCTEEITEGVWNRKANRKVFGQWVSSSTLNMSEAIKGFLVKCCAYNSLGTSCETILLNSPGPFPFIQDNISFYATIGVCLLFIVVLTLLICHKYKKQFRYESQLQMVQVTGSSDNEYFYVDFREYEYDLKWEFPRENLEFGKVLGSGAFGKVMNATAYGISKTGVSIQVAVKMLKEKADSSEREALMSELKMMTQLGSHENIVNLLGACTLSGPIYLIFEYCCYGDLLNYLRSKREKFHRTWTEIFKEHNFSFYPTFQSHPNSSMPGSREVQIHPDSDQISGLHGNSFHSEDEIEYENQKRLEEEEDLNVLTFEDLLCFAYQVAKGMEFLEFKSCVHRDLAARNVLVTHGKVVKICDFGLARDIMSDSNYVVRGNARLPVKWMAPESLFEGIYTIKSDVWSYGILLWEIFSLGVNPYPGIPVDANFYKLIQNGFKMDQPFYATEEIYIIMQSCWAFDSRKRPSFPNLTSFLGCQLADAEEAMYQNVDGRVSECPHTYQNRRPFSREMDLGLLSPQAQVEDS

[5] = target: High affinity nerve growth factor receptor (Homo sapiens, UniProt P04629)
[6] = target: T2, Cyclin-dependent kinase-like 5 (Homo sapiens, UniProt O76039)
T2 sequence (O76039 whole entry): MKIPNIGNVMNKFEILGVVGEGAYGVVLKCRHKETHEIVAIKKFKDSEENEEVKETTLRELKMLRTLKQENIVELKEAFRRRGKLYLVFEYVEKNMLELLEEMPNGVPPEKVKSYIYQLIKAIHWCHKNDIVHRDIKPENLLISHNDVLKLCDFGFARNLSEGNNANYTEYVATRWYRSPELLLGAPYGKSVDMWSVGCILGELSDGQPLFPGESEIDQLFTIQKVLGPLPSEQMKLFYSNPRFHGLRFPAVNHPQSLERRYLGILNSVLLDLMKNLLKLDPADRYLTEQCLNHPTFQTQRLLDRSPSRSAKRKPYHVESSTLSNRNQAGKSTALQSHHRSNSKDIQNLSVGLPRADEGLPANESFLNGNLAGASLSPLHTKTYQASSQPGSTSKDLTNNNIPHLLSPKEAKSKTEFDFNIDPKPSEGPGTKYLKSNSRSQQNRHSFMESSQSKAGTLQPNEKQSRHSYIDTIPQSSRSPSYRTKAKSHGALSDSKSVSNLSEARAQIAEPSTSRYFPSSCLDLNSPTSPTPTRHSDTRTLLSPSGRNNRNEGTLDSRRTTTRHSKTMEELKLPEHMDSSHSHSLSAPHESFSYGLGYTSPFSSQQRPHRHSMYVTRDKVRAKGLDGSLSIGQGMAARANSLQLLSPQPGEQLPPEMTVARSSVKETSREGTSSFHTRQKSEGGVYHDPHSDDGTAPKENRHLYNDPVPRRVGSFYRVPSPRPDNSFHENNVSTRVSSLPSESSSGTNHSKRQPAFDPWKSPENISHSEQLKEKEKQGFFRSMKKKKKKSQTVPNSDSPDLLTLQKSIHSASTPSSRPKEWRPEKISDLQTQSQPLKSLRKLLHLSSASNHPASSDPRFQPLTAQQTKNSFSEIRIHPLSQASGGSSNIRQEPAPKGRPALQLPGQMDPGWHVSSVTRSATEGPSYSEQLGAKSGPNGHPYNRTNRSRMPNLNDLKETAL

[7] = target: Rho-associated protein kinase 1 (Homo sapiens, UniProt Q13464)
[8] = target: T3, Protein kinase C zeta type (Homo sapiens, UniProt Q05513)
T3 sequence (Q05513 whole entry): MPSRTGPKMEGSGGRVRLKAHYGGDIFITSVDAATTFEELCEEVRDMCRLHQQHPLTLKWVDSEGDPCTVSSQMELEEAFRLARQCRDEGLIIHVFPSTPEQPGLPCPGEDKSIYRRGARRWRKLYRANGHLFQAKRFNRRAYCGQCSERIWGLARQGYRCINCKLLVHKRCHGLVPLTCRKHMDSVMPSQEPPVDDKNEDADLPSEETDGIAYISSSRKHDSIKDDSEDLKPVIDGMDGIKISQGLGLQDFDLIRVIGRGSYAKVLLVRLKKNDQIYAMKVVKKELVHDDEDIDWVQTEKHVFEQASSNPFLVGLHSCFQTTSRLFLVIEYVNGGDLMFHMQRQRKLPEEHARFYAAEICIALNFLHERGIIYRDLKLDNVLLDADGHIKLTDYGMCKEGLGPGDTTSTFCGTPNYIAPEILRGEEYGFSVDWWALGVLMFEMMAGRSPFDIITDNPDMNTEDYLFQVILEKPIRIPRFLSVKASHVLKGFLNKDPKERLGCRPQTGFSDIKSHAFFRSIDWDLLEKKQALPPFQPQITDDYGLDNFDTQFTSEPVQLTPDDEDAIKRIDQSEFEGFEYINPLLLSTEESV
Also: in the data inactive means no Kd found up to 30 µM.

Sequence of Dual specificity testis-specific protein kinase 2 (Q96S53 whole entry): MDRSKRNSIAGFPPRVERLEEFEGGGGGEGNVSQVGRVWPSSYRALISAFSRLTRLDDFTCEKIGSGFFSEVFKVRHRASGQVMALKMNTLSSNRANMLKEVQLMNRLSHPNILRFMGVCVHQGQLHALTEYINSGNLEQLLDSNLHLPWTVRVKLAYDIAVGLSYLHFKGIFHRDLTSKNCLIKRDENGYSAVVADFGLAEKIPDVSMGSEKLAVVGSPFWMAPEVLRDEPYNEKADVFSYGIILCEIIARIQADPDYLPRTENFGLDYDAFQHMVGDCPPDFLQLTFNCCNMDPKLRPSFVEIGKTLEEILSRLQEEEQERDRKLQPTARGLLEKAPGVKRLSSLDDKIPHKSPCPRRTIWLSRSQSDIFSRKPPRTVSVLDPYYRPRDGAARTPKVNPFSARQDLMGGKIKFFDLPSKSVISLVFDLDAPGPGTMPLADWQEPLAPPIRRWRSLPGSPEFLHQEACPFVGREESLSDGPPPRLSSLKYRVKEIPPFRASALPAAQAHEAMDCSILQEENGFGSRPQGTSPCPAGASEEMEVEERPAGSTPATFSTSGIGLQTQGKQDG
Sequence of PAS domain-containing serine/threonine-protein kinase (Q96RG2 whole entry, the tested form may be a part): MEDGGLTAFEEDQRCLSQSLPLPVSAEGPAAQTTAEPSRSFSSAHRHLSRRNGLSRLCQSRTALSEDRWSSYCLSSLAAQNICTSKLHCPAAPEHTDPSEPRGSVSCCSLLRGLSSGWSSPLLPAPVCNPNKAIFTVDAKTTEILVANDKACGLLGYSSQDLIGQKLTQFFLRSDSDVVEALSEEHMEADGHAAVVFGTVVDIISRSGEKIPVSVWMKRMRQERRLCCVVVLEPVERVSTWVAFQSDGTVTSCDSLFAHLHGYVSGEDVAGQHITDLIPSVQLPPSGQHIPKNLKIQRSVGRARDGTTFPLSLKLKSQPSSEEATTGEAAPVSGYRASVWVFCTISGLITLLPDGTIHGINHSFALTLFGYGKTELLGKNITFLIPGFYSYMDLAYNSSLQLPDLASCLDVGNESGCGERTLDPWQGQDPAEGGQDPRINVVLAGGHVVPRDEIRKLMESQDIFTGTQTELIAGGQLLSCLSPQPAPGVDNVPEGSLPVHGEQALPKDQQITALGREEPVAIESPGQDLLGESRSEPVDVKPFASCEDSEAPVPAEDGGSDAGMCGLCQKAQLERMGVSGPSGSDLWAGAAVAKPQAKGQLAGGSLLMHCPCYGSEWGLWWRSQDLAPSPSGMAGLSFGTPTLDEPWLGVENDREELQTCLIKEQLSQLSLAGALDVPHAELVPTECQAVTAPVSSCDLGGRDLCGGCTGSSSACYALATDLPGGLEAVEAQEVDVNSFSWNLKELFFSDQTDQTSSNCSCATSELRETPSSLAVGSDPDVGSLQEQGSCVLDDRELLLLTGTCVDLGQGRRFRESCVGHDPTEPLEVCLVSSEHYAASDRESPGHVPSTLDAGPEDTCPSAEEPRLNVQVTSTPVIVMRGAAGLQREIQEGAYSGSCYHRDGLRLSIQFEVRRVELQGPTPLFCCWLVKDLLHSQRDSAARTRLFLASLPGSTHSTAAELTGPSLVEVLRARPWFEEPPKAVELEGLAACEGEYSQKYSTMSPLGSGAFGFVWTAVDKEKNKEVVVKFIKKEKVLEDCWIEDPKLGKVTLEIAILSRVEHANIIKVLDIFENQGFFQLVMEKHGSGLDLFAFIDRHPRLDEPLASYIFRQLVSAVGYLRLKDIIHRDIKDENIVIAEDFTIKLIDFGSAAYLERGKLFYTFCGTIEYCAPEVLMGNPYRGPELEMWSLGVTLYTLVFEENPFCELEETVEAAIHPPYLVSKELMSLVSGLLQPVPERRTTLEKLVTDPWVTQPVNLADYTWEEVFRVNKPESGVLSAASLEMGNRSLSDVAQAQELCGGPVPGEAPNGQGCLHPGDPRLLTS
Sequence of Myosin-10 (P35580 whole entry, the tested form may be a part): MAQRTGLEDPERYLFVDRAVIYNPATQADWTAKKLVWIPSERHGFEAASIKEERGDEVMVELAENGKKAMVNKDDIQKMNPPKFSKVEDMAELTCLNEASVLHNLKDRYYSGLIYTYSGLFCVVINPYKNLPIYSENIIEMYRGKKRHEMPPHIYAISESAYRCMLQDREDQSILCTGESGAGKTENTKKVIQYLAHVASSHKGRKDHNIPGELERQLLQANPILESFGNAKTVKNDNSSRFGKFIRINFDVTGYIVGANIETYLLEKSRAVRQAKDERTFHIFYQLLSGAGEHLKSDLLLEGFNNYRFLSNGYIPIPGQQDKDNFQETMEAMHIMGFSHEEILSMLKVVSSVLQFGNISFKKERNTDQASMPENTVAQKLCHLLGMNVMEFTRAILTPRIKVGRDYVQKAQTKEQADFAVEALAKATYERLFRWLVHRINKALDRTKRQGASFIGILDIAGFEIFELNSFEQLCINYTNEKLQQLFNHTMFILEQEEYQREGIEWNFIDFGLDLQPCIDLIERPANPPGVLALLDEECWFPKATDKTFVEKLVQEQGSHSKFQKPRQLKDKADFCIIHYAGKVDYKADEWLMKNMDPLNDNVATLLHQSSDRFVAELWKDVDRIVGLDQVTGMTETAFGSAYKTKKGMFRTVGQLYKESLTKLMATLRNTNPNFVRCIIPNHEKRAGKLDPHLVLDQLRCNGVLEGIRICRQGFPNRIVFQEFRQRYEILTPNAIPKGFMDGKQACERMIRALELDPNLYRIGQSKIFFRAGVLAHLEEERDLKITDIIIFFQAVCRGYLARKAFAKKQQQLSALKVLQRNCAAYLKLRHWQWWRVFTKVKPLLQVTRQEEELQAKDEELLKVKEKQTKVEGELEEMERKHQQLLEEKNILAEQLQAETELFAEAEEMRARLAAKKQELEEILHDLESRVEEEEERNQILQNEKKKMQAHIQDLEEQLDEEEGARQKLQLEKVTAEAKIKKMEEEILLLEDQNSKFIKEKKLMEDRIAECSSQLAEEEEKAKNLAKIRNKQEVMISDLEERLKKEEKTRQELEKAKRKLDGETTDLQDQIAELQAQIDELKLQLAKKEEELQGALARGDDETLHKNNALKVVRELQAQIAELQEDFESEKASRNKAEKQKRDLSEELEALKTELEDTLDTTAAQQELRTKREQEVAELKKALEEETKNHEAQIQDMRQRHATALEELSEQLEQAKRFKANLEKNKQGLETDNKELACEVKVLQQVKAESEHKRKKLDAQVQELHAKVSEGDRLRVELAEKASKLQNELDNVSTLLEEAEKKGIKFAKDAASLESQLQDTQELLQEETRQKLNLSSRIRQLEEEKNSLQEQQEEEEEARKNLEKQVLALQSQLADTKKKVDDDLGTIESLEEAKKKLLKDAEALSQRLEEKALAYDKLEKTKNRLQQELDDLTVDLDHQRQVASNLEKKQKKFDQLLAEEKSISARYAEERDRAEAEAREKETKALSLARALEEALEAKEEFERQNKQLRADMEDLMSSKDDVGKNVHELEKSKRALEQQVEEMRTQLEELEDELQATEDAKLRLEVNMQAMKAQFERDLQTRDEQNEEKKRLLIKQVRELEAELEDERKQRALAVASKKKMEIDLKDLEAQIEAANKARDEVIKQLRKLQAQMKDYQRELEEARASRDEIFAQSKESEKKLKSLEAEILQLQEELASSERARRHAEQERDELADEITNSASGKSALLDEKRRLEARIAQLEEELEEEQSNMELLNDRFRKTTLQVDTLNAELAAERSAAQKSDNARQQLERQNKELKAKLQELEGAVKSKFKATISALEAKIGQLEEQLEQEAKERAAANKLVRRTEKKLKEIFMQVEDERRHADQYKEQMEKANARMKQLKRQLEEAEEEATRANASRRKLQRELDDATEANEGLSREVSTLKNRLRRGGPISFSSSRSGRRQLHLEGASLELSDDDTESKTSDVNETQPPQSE
Sequence of Membrane-associated progesterone receptor component 1 (O00264 whole entry): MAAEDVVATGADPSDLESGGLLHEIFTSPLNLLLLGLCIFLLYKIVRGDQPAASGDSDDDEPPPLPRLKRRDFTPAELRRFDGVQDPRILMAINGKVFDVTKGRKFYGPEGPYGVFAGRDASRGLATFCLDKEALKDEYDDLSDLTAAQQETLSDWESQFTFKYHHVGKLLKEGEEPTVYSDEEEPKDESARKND
Sequence of High affinity nerve growth factor receptor (P04629 whole entry): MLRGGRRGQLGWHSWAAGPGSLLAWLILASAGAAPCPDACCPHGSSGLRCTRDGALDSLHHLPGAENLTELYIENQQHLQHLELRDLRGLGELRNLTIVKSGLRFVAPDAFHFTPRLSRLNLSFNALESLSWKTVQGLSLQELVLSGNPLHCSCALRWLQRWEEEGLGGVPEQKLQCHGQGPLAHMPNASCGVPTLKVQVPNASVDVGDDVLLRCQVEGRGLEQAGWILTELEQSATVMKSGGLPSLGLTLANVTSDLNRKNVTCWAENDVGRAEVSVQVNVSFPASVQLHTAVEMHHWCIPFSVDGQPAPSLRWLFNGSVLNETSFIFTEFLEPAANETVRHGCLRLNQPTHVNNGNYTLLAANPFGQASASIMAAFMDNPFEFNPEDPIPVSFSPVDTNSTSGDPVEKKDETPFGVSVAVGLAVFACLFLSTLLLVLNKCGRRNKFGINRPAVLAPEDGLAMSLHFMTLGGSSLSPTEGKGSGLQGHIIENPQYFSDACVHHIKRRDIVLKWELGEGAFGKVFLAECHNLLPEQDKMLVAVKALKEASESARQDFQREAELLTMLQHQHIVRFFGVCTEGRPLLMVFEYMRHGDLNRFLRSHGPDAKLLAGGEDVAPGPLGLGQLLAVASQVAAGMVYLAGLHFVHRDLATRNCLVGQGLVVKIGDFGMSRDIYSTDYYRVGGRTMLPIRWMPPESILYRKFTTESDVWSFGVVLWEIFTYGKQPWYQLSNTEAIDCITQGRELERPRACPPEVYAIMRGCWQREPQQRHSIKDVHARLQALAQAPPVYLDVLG

Kd (Myosin-10) | Kd [1] | Kd [2] | Kd [3] | Kd [4] | Kd [5] | Kd [6] | Kd [7] | Kd [8] | SMILES
– | – | > 30 µM (inactive) | – | – | – | > 30 µM (inactive) | – | > 30 µM (inactive) | COc1cccc(Nc2ncnn3ccc(CN4CC[C@@H](N)[C@H](O)C4)c23)c1 [BMS-690514]
> 30 µM (inactive) | > 30 µM (inactive) | > 30 µM (inactive) | > 30 µM (inactive) | > 30 µM (inactive) | > 30 µM (inactive) | – | > 30 µM (inactive) | – | Cn1c(=O)c(F)c(Nc2ccc(I)cc2F)c2c(=O)n(C[C@@H](O)CO)cnc21 [TAK-733]
> 30 µM (inactive) | – | – | > 30 µM (inactive) | > 30 µM (inactive) | > 30 µM (inactive) | – | > 30 µM (inactive) | > 30 µM (inactive) | COc1cccc2cc(-c3nc([C@H]4CC[C@H](C(=O)O)CC4)n4ncnc(N)c34)[nH]c12 [OSI-027]
– | – | > 30 µM (inactive) | – | – | – | – | – | > 30 µM (inactive) | C[C@@]1(C(=O)Nc2ccc(F)nc2)CCCN1c1nc(Nc2cc(C3CC3)n[nH]2)c2cccn2n1 [BMS-754807]

More lines, now with the values behind:

SMILES | Kd (Myosin-10) | Kd [1] | Kd [2] | Kd [3] | Kd [4] | Kd [5] | Kd [6] | Kd [7] | Kd [8]
C[C@]1(O)C[C@@H](c2nc(-c3ccc4ccc(-c5ccccc5)nc4c3)c3c(N)nccn32)C1 [LINSITINIB] | > 30 µM (inactive) | > 30 µM (inactive) | > 30 µM (inactive) | > 30 µM (inactive) | – | – | – | – | –
COc1cc2ncnc(Nc3ccc(O)cc3)c2cc1OC [WHI-P131] | > 30 µM (inactive) | > 30 µM (inactive) | > 30 µM (inactive) | > 30 µM (inactive) | 1.31 µM (active) | > 30 µM (inactive) | > 30 µM (inactive) | > 30 µM (inactive) | –
Cn1c(=O)n(-c2ccc(C(C)(C)C#N)cc2)c2c3cc(-c4cnc5ccccc5c4)ccc3ncc21 [DACTOLISIB] | > 30 µM (inactive) | – | – | > 30 µM (inactive) | – | – | – | – | > 30 µM (inactive)
COc1cc(F)c(F)c(Nc2ccc(I)cc2F)c1NS(=O)(=O)C1(C[C@H](O)CO)CC1 [REFAMETINIB] | – | > 30 µM (inactive) | – | – | > 30 µM (inactive) | > 30 µM (inactive) | > 30 µM (inactive) | > 30 µM (inactive) | > 30 µM (inactive)
COc1cc2c(Oc3ccc4[nH]c(C)cc4c3F)ncnc2cc1OCCCN1CCCC1 [CEDIRANIB] | > 30 µM (inactive) | > 30 µM (inactive) | > 30 µM (inactive) | – | – | – | – | – | > 30 µM (inactive)
O[C@H]1CC[C@H](Nc2ncc3nc(Nc4c(F)cc(F)cc4F)n([C@H]4CCOC4)c3n2)CC1 [TANZISERTIB] | – | > 30 µM (inactive) | – | – | > 30 µM (inactive) | > 30 µM (inactive) | > 30 µM (inactive) | > 30 µM (inactive) | > 30 µM (inactive)
COc1cc2c(N3CCN(C(=O)Nc4ccc(OC(C)C)cc4)CC3)ncnc2cc1OCCCN1CCCCC1 [TANDUTINIB] | > 30 µM (inactive) | > 30 µM (inactive) | > 30 µM (inactive) | – | – | – | – | – | –
CN(C)C/C=C/C(=O)Nc1cc2c(Nc3ccc(F)c(Cl)c3)ncnc2cc1O[C@H]1CCOC1 [AFATINIB] | > 30 µM (inactive) | > 30 µM (inactive) | – | > 30 µM (inactive) | – | – | – | – | > 30 µM (inactive)
CCN1CCN(Cc2ccc(Nc3ncc(F)c(-c4cc(F)c5nc(C)n(C(C)C)c5c4)n3)nc2)CC1 [ABEMACICLIB] | – | – | – | – | – | > 30 µM (inactive) | > 30 µM (inactive) | > 30 µM (inactive) | > 30 µM (inactive)
O=S(=O)(c1cccc2c(O)nccc12)N1CCCNCC1 [HYDROXYFASUDIL] | > 30 µM (inactive) | > 30 µM (inactive) | – | > 30 µM (inactive) | > 30 µM (inactive) | > 30 µM (inactive) | > 30 µM (inactive) | – | > 30 µM (inactive)
COCCN1CCN(Cc2ccc(-c3n[nH]c4c3C(=O)c3c(NC(=O)NN5CCOCC5)cccc3-4)cc2)CC1 [RGB-286638] | > 30 µM (inactive) | – | – | > 30 µM (inactive) | 0.323 µM (active) | > 30 µM (inactive) | – | > 30 µM (inactive) | > 30 µM (inactive)
CC1(C)CNc2cc(NC(=O)c3cccnc3NCc3ccncc3)ccc21 [MOTESANIB] | > 30 µM (inactive) | – | > 30 µM (inactive) | > 30 µM (inactive) | – | – | – | – | > 30 µM (inactive)
C[C@@H]1COC(Nc2ccc3ncnc(Nc4ccc(OCc5nccs5)c(Cl)c4)c3c2)=N1 [VARLITINIB] | – | > 30 µM (inactive) | > 30 µM (inactive) | > 30 µM (inactive) | > 30 µM (inactive) | > 30 µM (inactive) | > 30 µM (inactive) | > 30 µM (inactive) | –
COc1cc2nccc(Oc3ccc(NC(=O)C4(C(=O)Nc5ccc(F)cc5)CC4)cc3)c2cc1OC [CABOZANTINIB] | > 30 µM (inactive) | – | – | > 30 µM (inactive) | – | 4.11 µM (active) | – | > 30 µM (inactive) | > 30 µM (inactive)
CNC(=O)c1cccc(-c2ccc3c(N4CCOC[C@@H]4C)nc(N4CCOC[C@@H]4C)nc3n2)c1 [VISTUSERTIB] | > 30 µM (inactive) | > 30 µM (inactive) | > 30 µM (inactive) | > 30 µM (inactive) | > 30 µM (inactive) | > 30 µM (inactive) | > 30 µM (inactive) | > 30 µM (inactive) | –
COc1ccc(-c2ccc3ncc4c(c3c2)n(-c2ccc(N3CCNCC3)c(C(F)(F)F)c2)c(=O)n4C)cn1 [BGT-226 FREE BASE] | > 30 µM (inactive) | > 30 µM (inactive) | > 30 µM (inactive) | > 30 µM (inactive) | > 30 µM (inactive) | > 30 µM (inactive) | – | > 30 µM (inactive) | –
O=S(=O)(c1cccc2cnccc12)N1CCCNCC1 [FASUDIL] | > 30 µM (inactive) | > 30 µM (inactive) | > 30 µM (inactive) | – | – | – | – | – | –
Cc1c(Cn2c(C)nc3c(C(=O)O)cc(N4CCOCC4)cc32)cccc1C(F)(F)F [GSK-2636771] | – | – | > 30 µM (inactive) | > 30 µM (inactive) | > 30 µM (inactive) | > 30 µM (inactive) | – | > 30 µM (inactive) | > 30 µM (inactive)
